The target of one experiment is T1, TBK1 (Homo sapiens, UniProt Q9UHD2).
T1 sequence (Q9UHD2 1-729): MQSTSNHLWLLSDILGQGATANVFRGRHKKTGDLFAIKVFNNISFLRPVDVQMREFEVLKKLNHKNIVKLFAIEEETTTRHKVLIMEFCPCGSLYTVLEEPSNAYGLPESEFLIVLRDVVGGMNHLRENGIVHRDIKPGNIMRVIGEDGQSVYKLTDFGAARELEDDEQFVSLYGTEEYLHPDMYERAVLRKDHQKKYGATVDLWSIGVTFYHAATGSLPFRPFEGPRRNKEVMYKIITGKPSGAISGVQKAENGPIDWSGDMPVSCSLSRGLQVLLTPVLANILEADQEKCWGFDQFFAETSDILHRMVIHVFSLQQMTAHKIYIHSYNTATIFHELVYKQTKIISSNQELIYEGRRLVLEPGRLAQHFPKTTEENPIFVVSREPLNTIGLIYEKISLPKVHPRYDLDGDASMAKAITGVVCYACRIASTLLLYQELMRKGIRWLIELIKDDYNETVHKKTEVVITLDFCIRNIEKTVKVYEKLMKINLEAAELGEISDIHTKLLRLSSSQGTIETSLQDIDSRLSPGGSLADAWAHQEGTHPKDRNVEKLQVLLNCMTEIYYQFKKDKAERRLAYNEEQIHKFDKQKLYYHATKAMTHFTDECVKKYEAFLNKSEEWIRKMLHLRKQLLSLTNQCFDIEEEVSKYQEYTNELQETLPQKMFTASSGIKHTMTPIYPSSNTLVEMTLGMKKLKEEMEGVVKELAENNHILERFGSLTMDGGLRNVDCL
Briefly: TBK biochemical assay. As to conditions: 10 point 1:4 dose response, 30 uM top concentration, 90 min at 25° C., LabChip EZ Reader II; read-out: TBK1_IC50. The gist of the method: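 Read-out was a Caliper LabChip mobility-shift assay, run after a 90-min, 25 °C reaction of TBK1 with substrate and compounds, quenched with stop buffer. Control wells received staurosporine at 10 uM final.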

Another experiment concerns the target T2, IKKε (Homo sapiens, UniProt Q14164).
T2 sequence (Q14164 1-716): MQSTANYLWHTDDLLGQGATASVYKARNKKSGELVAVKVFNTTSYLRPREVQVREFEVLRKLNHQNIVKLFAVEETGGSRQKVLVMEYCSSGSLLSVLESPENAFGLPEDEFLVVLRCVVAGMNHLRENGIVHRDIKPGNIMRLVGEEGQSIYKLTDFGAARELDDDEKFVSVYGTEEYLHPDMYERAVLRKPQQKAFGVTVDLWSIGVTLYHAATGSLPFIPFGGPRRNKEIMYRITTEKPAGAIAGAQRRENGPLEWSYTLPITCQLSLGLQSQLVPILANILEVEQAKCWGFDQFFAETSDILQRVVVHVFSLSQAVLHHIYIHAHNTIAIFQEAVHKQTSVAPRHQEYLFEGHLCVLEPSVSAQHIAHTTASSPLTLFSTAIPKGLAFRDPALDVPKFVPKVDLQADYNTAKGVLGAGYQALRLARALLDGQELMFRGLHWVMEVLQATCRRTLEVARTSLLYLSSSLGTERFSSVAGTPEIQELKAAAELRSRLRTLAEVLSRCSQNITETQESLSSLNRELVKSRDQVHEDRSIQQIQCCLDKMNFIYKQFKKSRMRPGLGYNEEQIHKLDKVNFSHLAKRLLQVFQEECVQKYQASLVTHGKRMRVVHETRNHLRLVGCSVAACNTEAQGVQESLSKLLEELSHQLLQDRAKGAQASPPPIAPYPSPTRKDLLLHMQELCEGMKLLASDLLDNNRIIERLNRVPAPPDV
The experiment can be described thus: IKKε biochemical assay. As to conditions: 10 point 1:4 dose response, 30 uM top concentration, 90 min at 25° C., LabChip EZ Reader II; read-out: IKKε_IC50. Summed up:
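Mobility-shift LabChip read-out followed a 90 min, 25° C. reaction of IKKε with substrate and test compound, with DMSO held at 1% final. Reactions were ended with stop buffer. Wells with 10 uM final staurosporine defined complete inhibition, and DMSO-only wells the uninhibited level.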

Molecules are shown by their SMILES. Counter-ions that a name gives are not always drawn.

For the compound `COc1cc(Nc2nccc(-c3ccc(OC4CCN(C(=O)[C@@H](C)O)CC4)c(C#N)c3)n2)ncc1N1CCN(C2COC2)CC1` [Example 319, 2-([1-[(2R)-2-hydroxypropanoyl]piperidin-4-yl]oxy)-5-[2-([4-methoxy-5-[4-(oxetan-3-yl)piperazin-1-yl]pyridin-2-yl]amino)pyrimidin-4-yl]benzonitrile], the IC50 was in the range of 1000 to 5000 nM on TBK1 and 100 to 1000 nM on IKKε.

Consider `COc1nc(Nc2nccc(-c3ccc(OC4CCOCC4)c(C#N)c3)n2)ccc1N(C)CCN(C)C` [Example 34, 5-[2-[(5-[[2-(dimethylamino)ethyl](methyl)amino]-6-methoxypyridin-2-yl)amino]pyrimidin-4-yl]-2-(oxan-4-yloxy)benzonitrile hydrochloride], for which the IC50 at TBK1 and on IKKε was less than 100 nM in each case.

As to `COc1nc(Nc2ncc(F)c(-c3ccc(O[C@H]4CCN(C(=O)[C@H](C)O)CC4(F)F)c(C#N)c3)n2)ccc1N1CCN(C2COC2)CC1` [Example 288, 2-[[(4S)-33-difluoro-1-[(2S)-2-hydroxypropanoyl]piperidin-4-yl]oxy]-5-[5-fluoro-2-([6-methoxy-5-[4-(oxetan-3-yl)piperazin-1-yl]pyridin-2-yl]amino)pyrimidin-4-yl]benzonitrile], the IC50 at TBK1 and on IKKε was less than 100 nM in each case.

As to `COc1nc(Nc2nccc(-c3ccc(OC4(C)CCN(C(=O)[C@H](C)O)CC4(F)F)c(C#N)c3)n2)ccc1N1CCN(C2COC2)CC1` (stereo partly drawn) [Example 265, 2-[3,3-Difluoro-1-((S)-2-hydroxy-propionyl)-4-methyl-piperidin-4-yloxy]-5-{2-[6-methoxy-5-(4-oxetan-3-yl-piperazin-1-yl)-pyridin-2-ylamino]-pyrimidin-4-yl}-benzonitrile], the IC50 on TBK1 and at IKKε was less than 100 nM in each case.

Regarding `COc1cc(Nc2nccc(-c3ccc(OC4CCOCC4)c(C#N)c3)n2)cnc1C(=O)N(C)C` [Example 50, 5-([4-[3-cyano-4-(oxan-4-yloxy)phenyl]pyrimidin-2-yl]amino)-3-methoxy-N,N-dimethylpyridine-2-carboxamide], the IC50 at TBK1 and on IKKε was less than 100 nM in each case.

For `COc1nc(Nc2nccc(-c3ccc(OC4CCOCC4)c(C#N)c3)n2)ccc1C(=O)NC1CCCC1O` (centres unmarked) [Example 9, 6-{4-[3-Cyano-4-(tetrahydro-pyran-4-yloxy)-phenyl]-pyrimidin-2-ylamino}-N-(2-hydroxy-cyclopentyl)-2-methoxy-nicotinamide], the IC50 on TBK1 and at IKKε was less than 100 nM each time.

Turning to `COc1cc(Nc2nccc(-c3ccc(OC4CCOCC4)c(C#N)c3)n2)cnc1C1CCN(C)CC1` [Example 57, 5-(2-[[5-methoxy-6-(1-methylpiperidin-4-yl)pyridin-3-yl]amino]pyrimidin-4-yl)-2-(oxan-4-yloxy)benzonitrile], the IC50 on TBK1 and on IKKε was less than 100 nM throughout.

Turning to `COc1nc(Nc2nccc(-c3ccc(O[C@@H]4CCN(C(=O)[C@H](C)O)C[C@@H]4F)c(C#N)c3)n2)ccc1N1CCN(C2COC2)CC1` [Example 118, 2-[(3S,4R)-3-Fluoro-1-((S)-2-hydroxy-propionyl)-piperidin-4-yloxy]-5-{2-[6-methoxy-5-(4-oxetan-3-yl-piperazin-1-yl)-pyridin-2-ylamino]-pyrimidin-4-yl}-benzonitrile], the IC50 at TBK1 and on IKKε was less than 100 nM in each case.

Regarding `COc1nc(Nc2nccc(-c3ccc(OC4CCOCC4)c(C#N)c3)n2)ccc1C(=O)N(C)C` [Example 1, 6-([4-[3-cyano-4-(oxan-4-yloxy)phenyl]pyrimidin-2-yl]amino)-2-methoxy-N,N-dimethylpyridine-3-carboxamide], the IC50 on TBK1 and on IKKε was less than 100 nM each time.

Regarding `COc1nc(Nc2nccc(-c3ccc(OC4CCOCC4)c(C#N)c3)n2)ccc1C(=O)NC1CCN(C)CC1` [Example 14, 6-([4-[3-cyano-4-(oxan-4-yloxy)phenyl]pyrimidin-2-yl]amino)-2-methoxy-N-(1-methylpiperidin-4-yl)pyridine-3-carboxamide], the IC50 at TBK1 and at IKKε was less than 100 nM each time.

The values are drawn from US20230019491A1, “PYRIMIDINE TBK/IKKe INHIBITOR COMPOUNDS AND USES THEREOF” (Merck Patent GmbH, priority 2017, published 2023).
